Test results: US20080026084A1, “Method and composition for management of weight and blood sugar” (PhytoMyco Research Corporation, priority 2006, published 2008)

Test system: 3T3-L1 cells
Assay: assays of this invention (lipolysis, inhibition of adipocyte differentiation, de-differentiation, leptin secretion)
Format: cell-based, mouse
Conditions: not given
Source text: Method i): Oil Red O staining which stains fat droplets in fat cells and thereby gives a directly related indication of the level of adipogenesis as a function of the amount of staining of fat droplets.
Method ii): GPDH or […] is a key enzyme involved in the pathway of triglyceride synthesis in the glycolytic pathway. Adipocytes express highlevels of this enzyme. Therefore, a reduction in GPDH levels is indicative of inhibition of adipogenesis (prevention of fat accumulation in cells).
Method iii): Assay to observe de-differentiation of adipocytes to preadipocytes can be used to detect compounds and mixtures of compounds that are capable of breaking down existing stores of body fat. This assay identifies compounds and mixtures of compounds than induce the […] of adipocytes to preadipocytes and is quantitatively assessed by developing a color response using Oil Red O staining or by measuring GPDH levels as in methods i) and ii), respectively. Such compounds and mixtures of compounds as extracts of plants can have a direct effect on reducing weight because they cause fat cells to become non-fat cells (preadipocytes).
Method iv) Leptin Secretion assay can be used to determine the presence of leptin which is a product of the Ob gene. It is a hormone secreted by mature adipocytes that plays a role in regulating body fat storage. High levels of leptin circulating in the blood indicate hormonally that energy stores are high, and therefore mitigate the need for further food intake. Compounds or mixtures of compounds of this invention that increase leptin secretion can be administered orally to an overweight or obese person to reduce appetite in that person, and therefore to reduce food intake by that person.
In this assay, pre-adipocyte cells are seeded in 96-well plates and are induced to convert to adipocytes over the course of a 10-15 day treatment with […] reagents. After cells have converted to adipocytes, the cells are starved, and then subsequently treated with or exposed to test compounds or mixtures of compounds or extracts of plants or fractionated extracts of plants. The adipocytes are treated with test compounds in the presence of a surrounding cell medium. Over the course of 1 to 3 hours after exposure to the test compounds or mixture of compounds, the amount of glycerol present in the cell medium is measured. Glycerol and fatty acids are hydrolysis products of triglycerides, and glycerol is released from cells after enzymatic hydrolysis or breakdown of lipids. Results are expressed as a percentage of the amount of glycerol present detected in a reference assay comprising an untreated control. Untreated controls are cells that are treated with vehicle only (such as 100% DMSO).
Inhibition of adipocyte differentiation is assayed by measuring the levels of the enzyme glycerol-3-phosphate dehydrogenase (GPDH). GPDH is involved in the pathway of triglyceride synthesis in the glycolytic pathway. Colorimetric assays can be used to screen for compounds and mixtures of compounds than inhibit the differentiation of preadipocytes to adipocytes. Oil Red O is a colorimetric assay that can be used to stain lipids in adipocytes.
In this assay pre-adipocyte cells require 10 to 15 days to differentiate into adipocytes. […] After cells have undergone the 10-15 days required to differentiate, cells are assessed for GPDH activity.
Results are expressed as a percentage of the untreated control average. […]

Row | Compound | activity in the assays of this invention
1 | Cephalandrine B | active
2 | CC(=O)OC(C)(C)/C=C/C(=O)[C@](C)(O)[C@H]1[C@H](O)C[C@@]2(C)[C@@H]3CC=C4[C@H](C[C@H](O)C(=O)C4(C)C)[C@]3(C)C(=O)C[C@]12C [cucurbitacin B] | active
3 | CC(C)(O)/C=C/C(=O)[C@](C)(O)[C@H]1[C@H](O)C[C@@]2(C)[C@@H]3CC=C4[C@@H](C[C@H](O)C(=O)C4(C)C)[C@]3(C)C(=O)C[C@]12C [cucurbitacin D] | active
4 | Cephalandrol | active
5 | Cephalandrine A | active

Test system: not given
Assay: not given
Conditions: in vivo; cited from earlier work

Row | Compound | decrease of the amount of fat absorbed from the diet
6 | CCCCCCCCCCC[C@@H](C[C@@H]1OC(=O)[C@H]1CCCCCC)OC(=O)[C@H](CC(C)C)NC=O [Orlistat] | about 30%
